# “And” between values parts separate entries of the source, which are not always exact repeats. Equal values may be shown once.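 Where inhibition never reached the appropriate level, the endpoint shown equals the highest concentration tested. Otherwise, values were interpolated linearly from a five-concentration, 48-hour dose response in 96-well plates. At the GI50, growth is halved. TGI marks complete inhibition of growth.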
# Key:
# Assay in all cases: growth of human tumour cells (NCI), 48 h
# [1] = system: CAKI-1 renal
# [2] = system: HCT-15 colon
# [3] = system: IGROV1 ovarian
# [4] = system: M14 melanoma
# [5] = system: MOLT-4 leukemia
# [6] = system: NCI-H226 lung
# [7] = system: NCI-H522 lung
# [8] = system: OVCAR-3 ovarian
# [9] = system: SF-539 CNS
# [10] = system: SK-OV-3 ovarian
SMILES,TGI [1],TGI [2] [µM],TGI [3],TGI [4] [µM],TGI [5],TGI [6] [µM],TGI [7],TGI [8] [µM],TGI [9],TGI [10] [µM],GI50 [1] [µM],GI50 [2],GI50 [3],GI50 [4] [µM],GI50 [5] [µM],GI50 [6] [µM],GI50 [7] [µM],GI50 [8] [µM],GI50 [9] [µM],GI50 [10] [µM]
CCc1nc(N)nc(N)c1-c1ccc2nnn(O)c2c1,> 100 µM,> 100,> 100 µM,> 100,> 100 µM,> 100,> 100 µM,> 100,> 100 µM,> 100,–,–,–,–,–,–,–,–,–,–
CCCc1cc(=O)n2c(C(=O)Nc3cccc(C(=O)OCC)c3)c(C(=O)Nc3ccc(F)cc3)sc2n1,28.2 µM,> 140,65.9 µM,86,> 140 µM,27.7,> 140 µM,7.75,> 140 µM,75,4.95,125 µM,24.8 µM,9.6,> 140,5.83,65,3.17,23.8,23.9
Nc1nc(N)c(-c2ccccc2)c(C(=O)Nc2ccccc2)n1,> 100 µM,> 100,> 100 µM,> 100,> 100 µM,> 100,> 100 µM,> 100,> 100 µM,> 100,–,–,–,–,–,–,–,–,–,–
CCCCCCn1c(-c2ccc(C(=O)O/N=C(\N)c3ccc4ccccc4c3)cc2)nc(-c2ccccc2)c1-c1ccccc1,55.1 µM,> 100,–,> 100,> 100 µM,> 100,> 100 µM,> 100,> 100 µM,> 90.9,2.65,7.53 µM,–,> 83.5,> 100,27.3,24.5,> 100,12.5,25.9
CCC(O)C1Cc2c(C)cc3c(c2O1)C(=O)c1ccccc1C3=O (stereo unspecified),> 100 µM,> 100,> 100 µM,> 100,> 100 µM,> 100,51.6 µM,> 100,–,89.4,–,–,–,–,–,–,–,–,–,–
C=C1C(=O)O[C@H]2[C@H]1CC/C(C=Nc1c(N)cc(C(F)(F)F)cc1C(F)(F)F)=C\CC[C@@]1(C)O[C@@H]21,2.98 µM,3.73,–,3.67,> 100 µM,4.11,4.13 µM,2.86,–,11.5,1.49,1.05 µM,–,1.73,0.517,1.43,1.66,1.41,–,3.26
COC(=O)c1ccccc1N1C(=O)Cc2ccccc2C1=O,–,> 100,> 100 µM,–,> 100 µM,> 100,–,> 100,> 100 µM,> 100,–,–,–,–,–,–,–,–,–,–
COc1ccc2c(c1)[nH]c(=O)c1c3ccccc3cn21,1.97 µM and 5.38 µM,–,2.27 µM and 16 µM,12.9,2.14 µM and 9.95 µM,–,2.28 µM and 1.48 µM,0.0652,0.0704 µM and 0.207 µM,–,0.0355,0.0262 µM and < 0.0177 µM,0.0734 µM and < 0.0114 µM,–,0.0778,–,0.0597,0.0223,0.0228,–
Cc1ccc(NC(=O)c2cc3ccccc3c(N=Nc3cc(S(=O)(=O)O)ccc3O)c2O)c(C)c1,> 100 µM,> 100,> 100 µM,37.4,> 100 µM,> 100,> 100 µM,> 100,–,> 100,–,–,–,–,–,–,–,–,–,–
CCOC(=O)NC/C=C/COC1CCCCO1 (stereo unspecified),> 100 µM,> 100,> 100 µM,> 100,> 100 µM,> 100,> 100 µM,–,> 100 µM,> 100,–,–,–,–,–,–,–,–,–,–
[Cl][Hg][c]1ccc(Cl)s1,3.29 µM,1.72,3.67 µM,3.17,6.68 µM,28.6,0.325 µM,–,4.46 µM,26.8,1.69,0.397 µM,1.62 µM,1.55,1.64,4.71,0.114,–,2.03,13.6
COc1ccc(Sc2nc3cc(N)cc(N)c3nc2-c2ccccc2)cc1,> 100 µM,–,–,> 100,> 100 µM,–,> 100 µM,–,> 100 µM,> 100,9.71,–,–,> 100,4.19,–,3.2,–,10,32.9
N#CCCCCCOCCOCCOCCOCCOCCCCCC#N,> 100 µM,> 100,> 100 µM,> 100,> 100 µM,> 100,> 100 µM,> 100,–,> 100,–,–,–,–,–,–,–,–,–,–
CCCNCC(=O)O[C@]1(CC)C(=O)OCc2c1cc1n(c2=O)Cc2cc3ccccc3nc2-1,–,–,4.68 µM,1.82,0.0699 µM,0.331,1.63 µM,2.63,0.136 µM,> 100,–,–,–,–,–,–,–,–,–,–
O=C(/C(=C/c1ccc([N+](=O)[O-])cc1)SCc1ccc(Cl)cc1)c1ccc(F)cc1,–,4.26,22.3 µM,16.1,> 100 µM,> 41.6,3.76 µM,5.13,12.6 µM,63.5,–,1.9 µM,3.93 µM,3.38,2.83,9.67,1.84,2.2,3.47,16.6
CC(=O)Nc1c(I)c(NC(C)=O)c(I)c(C(=O)O)c1I,> 100 µM,> 100,> 100 µM,> 100,> 100 µM,> 100,> 100 µM,> 100,–,> 100,> 100,> 100 µM,> 100 µM,> 100,> 100,> 100,> 100,> 100,–,> 100
Nc1nc(Cl)cc(NCC(O)CO)n1 (stereo unspecified),–,> 100,> 100 µM,> 100,> 100 µM,> 100,–,> 100,> 100 µM,> 100,–,–,–,–,–,–,–,–,–,–
CCOC(=O)C(N=C(c1ccccc1)c1ccccc1)N(C(=O)OC(C)(C)C)C(=O)OC(C)(C)C (stereo unspecified),> 100 µM,> 100,> 100 µM,–,> 100 µM,> 100,> 100 µM,> 100,> 100 µM,> 100,–,–,–,–,–,–,–,–,–,–
Cc1cc(Nc2ncc3c(n2)N(C)C(=O)N(c2cc(NC(=O)c4cccc(C(F)(F)F)c4)ccc2C)C3)n(C)n1,0.0709 µM,> 46.4,0.0524 µM,0.096,> 46.4 µM,> 100,–,–,0.68 µM,0.0701,0.0182,0.196 µM,< 0.01 µM,< 0.01,0.135,0.0387,–,–,0.0621,0.022
N/C(=N/N=C/c1ccccc1)N/N=C\c1ccccc1,> 100 µM,30.3,> 100 µM,29.8,47.3 µM,> 100,> 100 µM,7.8,–,> 100,5.02,3.72 µM,8.6 µM,3.4,4.39,12.3,5.23,2.66,–,6.37
CC[C@@]1(O)C(=O)OCc2c1cc1n(c2=O)Cc2cc3cccc([N+](=O)[O-])c3nc2-1,–,–,14.9 µM,12.5,–,6.49,23.3 µM,43.5,2.89 µM,17.1,–,–,1.96 µM,1.05,–,0.552,1.04,4.92,0.478,0.501
COc1cc(-c2oc3c(OC)cc(OC)c(O)c3c(=O)c2OC)cc(OC)c1OC,> 100 µM,–,> 100 µM,> 100,> 100 µM,> 100,40.2 µM,> 100,> 100 µM,22.9,–,–,–,–,–,–,–,–,–,–
COCCNc1ccc2c3c(cccc13)C(=O)N(CCN(C)C)C2=O,10.1 µM,> 25,–,> 25,13 µM,17,12.4 µM,> 25,> 25 µM,> 25,4.49,6.84 µM,–,7.98,4.98,5.01,4.06,8.65,7.04,4.28
COc1ccc2cc(C(=O)/C=C/c3ccc(N(C)C)cc3)ccc2c1,> 100 µM,> 100,> 100 µM,> 100,> 100 µM,–,> 100 µM,> 100,–,> 100,67.5,57.3 µM,47.8 µM,> 100,> 100,–,39.1,> 100,–,> 100
CC[C@@H](C(=O)[C@H](C)[C@H](O)[C@@H](C)[C@H]1O[C@H]([C@@H](CC)C(=O)N(CC)CC)CC[C@H]1C)C1O[C@]2(C=C[C@@H](O)[C@]3(CC[C@@](C)([C@H]4CC[C@](O)(CC)[C@H](C)O4)O3)O2)[C@H](C)C[C@@H]1C (stereo partly specified),8.06 µM,8.28,10.8 µM,–,7.05 µM,10.9,7.74 µM,8.16,10.5 µM,10.1,2.12,2.64 µM,2.73 µM,–,2.55,2.69,2.34,2.64,3.01,3.06
